According to patent publication US4656178A (priority 1985, dated 1987):
Structures can show the parent of a compound that is named as a salt. Where two headings read alike, the source gives them in different places.

Experiments:
[1] = system: aconitine arrhythmia; experiment: animal or person; type: in vivo, rats; conditions: for perdition of narcotized rats prior to administration of aconitine: doses of 20 mg/kg and more; for duration of prevention of aconitine arrhythmia: doses of 5-10 mg/kg; for antiarrhythmic index (LD50/ED50): prophylactic effect, aconitine arrhythmia
Protocol: The assessment of the antiarrhythmic activity of the preparation was effected in acute and chronical experiments on rats, rabbits, cats and dogs. Various experimental models of arrhythmia were also used.
(§1) The atrioventricular arrhythmia caused by aconitine is one of the most reliable models for forecasting the efficiency of the antiarrhythmic action of the novel preparation in clinics. The experiments were conducted on both narcotized and non-narcotized animals. The preparation was administered per os, intramuscularly, intraperitoneally and intravenously 5 to 15 minutes prior to or 3-5 minutes after the administration of aconitine.
In doses of 0.2-0.5 mg/kg the preparation of this invention prevents the appearance of aconitine arrhythmia in 100% of the rats. […] Under similar experimental conditions a preliminary administration of novocainamide in the dose of 60 mg/kg intravenously produced an antiarrhythmic effect in 50% of the animals.

[2] = system: aconitine arrhythmia; type: in vivo, rats; conditions: for efficacy against developing aconitine arrhythmia: similar conditions, dose not stated
Protocol: as §1
The antiarrhythmic activity of the pharmaceutical composition according to the present invention upon administration thereof against the background of a developing aconitine arrhythmia (therapeutic effect) was studied on 110 narcotized rats. The preparation was intravenously administered at intervals of 3-6 minutes against the background of the originated arrhythmia.

[3] = system: cardiac arrhythmia caused by ligation of the descending branch of the left coronary artery; experiment: cardiac arrhythmia caused by ligation of the descending branch of the left coronary artery (Harris method) in dogs; type: in vivo
Protocol: The effect of the preparation according to the present invention on the cardiac arrhythmia caused by ligation of the descending branch of the left coronary artery by the Harris method was studied in experiments on dogs. The preparation according to the present invention was intravenously administered on the first and second post-operative days. Preliminarily, prior to every experiment 30 to 45 minutes before the administration of the preparation the background changes of the dogs' electrocardiogram (ECG) were recorded. […] In 40% thereof a full suppression of ectopic contractions was noticed for 3-3.5 hours, whereafter arrhythmia appeared with the intensity thereof not reaching the initial background during 7 hours.

[4] = system: cardiac conductive system; type: in vivo, narcotized rats, cats, intact rabbits and dogs; conditions: for rhythm of cardiac contractions: high doses
Source text: To investigate the character of the effect produced on the functions of the cardiac conductive system by the preparation according to the present invention, the ECG changes appearing in narcotized rats, cats, intact rabbits and dogs under the action of the preparation of this invention were studied. […] The effect of the preparation is retained for a long time.

[5] = system: cardiac arrhythmia induced by barium chloride; experiment: cardiac arrhythmia induced by barium chloride; type: in vivo, narcotized rats and intact rabbits
Protocol: The study of the antiarrhythmic activity of the preparation according to the present invention on a model of cardiac arrhythmia induced by barium chloride was carried out on 56 narcotized rats and 16 intact rabbits. The preparation of the present invention in the dose of 0.1 mg/kg injected 10 minutes prior to administration of barium prevented the development of arrhythmia in 86.6% of the animals.

[6] = system: arrhythmia caused by electrical irritation; experiment: arrhythmia caused by electrical irritation of the right auricle and apex of the left ventricle; type: in vivo, dogs and cats; conditions: for onset of antiarrhythmic effect: after intravenous administration; for bradycardia / reduction of arterial pressure: all tested doses
[7] = infiltration anesthesia in rabbits (intracutaneous); type: in vivo; conditions: 0.5% solution
Protocol: The local anesthetic effect of the preparation was studied on 14 intact rabbits. […] The results of the experiments on determination of the ability of the preparation to cause infiltration anesthesia have shown that 10-15 minutes after intracutaneous administration, to rabbits, of 0.01-0.05% and 0.1% solutions of the preparation anesthesia occurs which is characterized by an increased threshold of a pain irritation; the duration of the effect is 20 to 48 hours. Under the same conditions of the experiment, the local anesthetic effect of a 0.5% solution of novocaine lasts for 90 minutes on the average.

[8] = system: frog's heart; experiment: amplitude of cardiac contractions of isolated frog's heart (Schtraube)
Source text: To find out a negative inotropic effect on the heart tissue, two series of experiments have been carried out:
(1) the study of the effect of the preparation of this invention on the amplitude of the cardiac contractions of a frog's heart isolated according to Schtraube;

[9] = system: cardiotoxic effect of the preparation; experiment: sodium bicarbonate at cardiotoxic effect of the preparation in dogs

SMILES: COc1ccc(CCN(C)CCCC(C#N)(c2ccc(OC)c(OC)c2)C(C)C)cc1OC (stereo not drawn) [isoptin]
- prevention of aconitine arrhythmia ([1]; doses of 0.1-2.5 mg/kg): did not prevent the development of aconitine arrhythmia

SMILES: CCN(CC)CC(=O)Nc1c(C)cccc1C [lidocaine]
- perdition of narcotized rats prior to administration of aconitine [1]: perdition of a portion of the narcotized rats
- duration of prevention of aconitine arrhythmia [1]: 3 to 5 min
- duration of arrhythmia-arresting effect ([2]; 5-10 mg/kg, followed by development of arrhythmia): 0.5 to 3 min

SMILES: CCN(CC)CCNC(=O)c1ccc(N)cc1 [novocainamide, β-diethylaminoethylamide hydrochloride of p-aminobenzoic acid]
- duration of antiarrhythmic effect ([3]; 40-50 mg/kg): 4 to 7 min
- duration of antiarrhythmic effect ([3]; 70-80 mg/kg): 30 to 60 min
- dose producing the antiarrhythmic effect ([3]; dog, in vivo): 40 to 50 mg/kg
- rhythm of cardiac contractions [4]: sharp disturbances of the rhythm of cardiac contractions
- antiarrhythmic activity, barium chloride model ([5]; comparison with preparation and quinidine): weakest antiarrhythmic activity
- animals with antiarrhythmic effect ([1]; 60 mg/kg intravenously, preliminary administration): 50%
- antiarrhythmic index (LD50/ED50) [1]: 2.3
- animals with antiarrhythmic effect ([6]; 10 mg/kg): 40%
- duration of antiarrhythmic effect ([6]; 10 mg/kg): 2 to 5 min
- duration of antiarrhythmic effect ([6]; 20-30 mg/kg): 20 to 25 min
- onset of antiarrhythmic effect [6]: 1.0 to 1.5 min
- bradycardia [6]: bradycardia
- reduction of arterial pressure [6]: 20-70 mm Hg
- rats with restored normal sinus rhythm ([2]; 20 mg/kg): 3 rats out of 6
- duration of restored normal sinus rhythm (average) ([2]; 20 mg/kg, then stable arrhythmia appeared again): ~10 min
- animals with antiarrhythmic effect ([2]; 40 mg/kg): 83.3%
- rats with effect only during the first 20 minutes, then stable arrhythmia reappeared ([2]; 40 mg/kg): 50%
- duration of effect, after which stable arrhythmia reappeared ([2]; 40 mg/kg, in 50% of the rats): 20 min
- antiarrhythmic index (LD50/ED50) ([2]; against background of developing aconitine arrhythmia): 6.9

SMILES: CCN(CC)CCOC(=O)c1ccc(N)cc1 [novocaine, reference compound]
- duration of local anesthetic effect (average) [7]: ~90 min

SMILES: CC(C)NCC(O)COc1cccc2ccccc12 (stereo not drawn) [obzidan, propranolol]
- animals in which arrhythmia was developed (after retardation) ([1]; 5 mg/kg): 60%
- retardation of the time of appearance of aconitine arrhythmia ([1]; 5 mg/kg, in all test rats): 5 to 8 min
- efficacy against developing aconitine arrhythmia [2]: inefficient

SMILES: C=C[C@H]1C[N@@]2CC[C@H]1C[C@@H]2[C@@H](O)c1ccnc2ccc(OC)cc12 [quinidine]
- negative inotropic effect compared with the preparation [8]: considerably superior to the preparation of the present invention
- effect on isolated heart ([8]; concentration of 10^-4 to 3.10^-4 g/ml): along with a sharp inhibition of the amplitude of cardiac contractions, arrhythmia
- effect on cardiac arrhythmia ([3]; 5-10 mg/kg): weak effect
- rhythm of cardiac contractions [4]: sharp disturbances of the rhythm of cardiac contractions
- antiarrhythmic effect relative to the preparation ([5]; 10 mg/kg): approximately corresponded to the antiarrhythmic effect produced by the preparation according to the present invention in the dose of 0.1 mg/kg
- animals with antiarrhythmic effect ([1]; 20 mg/kg): 50%
- antiarrhythmic index (LD50/ED50) [1]: 2.75
- animals with antiarrhythmic effect ([6]; 10 mg/kg): 30%
- duration of antiarrhythmic effect ([6]; 10 mg/kg): 2 to 5 min
- duration of antiarrhythmic effect ([6]; 20-30 mg/kg): 20 to 25 min
- onset of antiarrhythmic effect [6]: 2 to 3 min
- bradycardia [6]: bradycardia
- reduction of arterial pressure [6]: 20-70 mm Hg
- antiarrhythmic activity against developing aconitine arrhythmia ([2]; doses of 2.5, 5, 10, 20 mg/kg): no antiarrhythmic activity

SMILES: O=C(O)O [sodium bicarbonate]
- effect on the inhibition of conductivity by the preparation ([4]; in vivo): diminishes the inhibiting effect of the preparation on conductivity
- effect on ECG changes caused by toxic doses of the preparation ([9]; 4% solution, 100 to 200 ml): equalizes distinctly pronounced electrocardiographic changes
- effect on reduced arterial pressure in overdosing of the preparation ([9]; infusion of sodium bicarbonate): levelled
- time to equalization of ECG changes caused by toxic doses of the preparation ([9]; intravenous infusion of 4% solution, 100 to 200 ml, after beginning of infusion): 15 to 30 min

SMILES: CCN(CC)CC(=O)Nc1c(C)cc(C)cc1C [trimecaine]
- perdition of narcotized rats prior to administration of aconitine [1]: perdition of a portion of the narcotized rats
- duration of prevention of aconitine arrhythmia [1]: 3 to 5 min
- efficacy against developing aconitine arrhythmia [2]: inefficient
